Measurements: patent publication US20230165970A1, “COMPOSITIONS AND METHODS FOR THE TREATMENT OF BACTERIAL INFECTIONS” (priority 2017, published 2023)
Converted amounts (≈) assume the structure as drawn. *1 amine or outer side, *2 acyl side, *3 side chain or, on linkers, in order; H or OH if unused. Where a SMILES comes first, the peptide text is derived from it. Bridges are numbered along the chain shown (N, C = ends). Roman numbers before positions name the chains, in order. [ ]: non-standard residue; d: D form. The star is where a group is joined. X5 = C#CCOCCOCCOCCOCCN1C[C@@H](C(=O)[*:1])[C@H](C(=O)[*:2])C1; X2 = O=C([C@@H](N[*:1])[C@H](O)CCC(F)(F)F)[*:2]; Propargyl(OCH2CH2)4CO = C#CCOCCOCCOCCOCCC(=O)*; X3 = CCCCC[C@@H](O)[C@H](N[*:1])C(=O)[*:2]; azaDab = NCCN(N[*:1])C(=O)[*:2]; Aoc(2) = CCCCCC[C@H](N)C(=O)O; hLeu = CC(C)CC[C@H](N)C(=O)O; Nle = CCCC[C@H](N)C(=O)O; Dab = NCC[C@H](N)C(=O)O; azaGly = NNC(=O)O

Experiments:
[1] = system: Ab 19606 (COLhet^R); assay type: cell-based, Acinetobacter baumannii; conditions: media CA-MHB
[2] = system: Kp 6951 (COL^R); assay type: cell-based, Klebsiella pneumoniae; conditions: Kp 6951 (COL^R); media CA-MHB
Procedure, shortened: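 Compounds were serially diluted 2-fold (8 or 12 points) against inocula from MHA cultures, set to ~0.1 OD600 in 0.85% saline. Conjugates were tested in RPMI B. Plates were incubated at 35 °C for 16-20 h, and Pa LES431 was also run with and without 50% heat-inactivated FBS.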

[3] = system: Ec LPS: E. coli 0111:B4; assay: Lethal mouse endotoxemia model (LD95 purified LPS IP); assay type: in vivo, C57BL/6J mice; conditions: (B) Endotoxemia (Ec LPS); 1 mg/kg IV, single, -1 hr; survival after three days
Method: (§1) Studies (B)-(D) shown in Table 22 summarizes the efficacy of compounds in lethal models of endotoxemia. In these models 6 week old C57I/6J immune competent mice (Jackson Laboratory) were challenged IP with purified lipopolysaccharide (LPS) in PBS at an LD95. For all studies, LPS was obtained from Sigma (catalog numbers in the table footnote) or were purified using a kit obtained from iNtRON Biotechnology Inc. (cat #17141). One hour prior to LPS challenge mice were dosed with test articles as indicated (Table 22). The results of these studies indicate that compounds are able to neutralize the lethal effects of LPS in a severe endotoxemia/sepsis model.
End point was survival after 3 days. Ec: E. coli 0111:[…] (Sigma cat #L4130); Ab: Acinetobacter baumannii 5075 (iNtRON cat #17141); Ng: Neisseria gonorrhoeae 19424 (iNtRON cat #17141); COL: colistin.
End point was survival after 3 days. Ec: E. coli 0111:B34, Sigma cat #L4130; Ab: Acinetobacter baumannii 5075; Kp: Klebsiella pneumonia 10, Sigma cat #L4268; Ng: Neisseria gonorrhoeae 19424; Ec 026:B86, Sigma cat #L2762; Pm: Proteus mirabilis, Sigma cat #SMB00704; Sm: Serratia marcescens, Sigma cat #L6016; Pa: Pseudomonas aeruginosa 10. […]

[4] = system: E. coli 25922; conditions: (A) Bacteremia (E. coli); 5 mg/kg IV, single, +1 hr; survival after three days; N=3
Method: In vivo screening of selected compounds was accomplished in an E. coli bacteremia model (N=3). Efficacy was assessed in an animal model of infection using CD-1 mice by evaluating bacteremia in immune competent mice challenged with 2× the LD95 of E. coli 25922 (dosed qd, intraperitoneally (IP) at T+1 hour, survival endpoint).
Colistin (COL) and Int-17 were dosed at 0.3 mg/kg and Int-41 was dosed at 3.0 mg/kg. Percent survival was determined 72 hours after bacterial challenge. Compounds with MICs against E. coli 25922 of less than 4 μg/ml were evaluated in the bacteremia model.
Int-115 and Int-118 were evaluated for potency in a lethal model of bacteremia. […] Test articles were dissolved in 1× PBS and injected IV at a dose volume of 10 ml/kg one hour following bacterial challenge. Animals were monitored twice daily and mortality scored over three days.
CD-1 mice were used for bacteremia, C57BL/6J mice for endotoxemia. The endpoint was survival after three days for both models.

[5] = system: Ec COL^R LPS: colistin-resistant (MCR-1) strain (AR0349); assay: Lethal mouse endotoxemia model (LD95 purified LPS IP); assay type: in vivo, C57BL/6J mice; conditions: (D) Endotoxemia (Ec COL^R LPS); 5 mg/kg IV, single, -1 hr; survival after three days
Method: as §1
End point was survival after 3 days. Ec: E. coli 0111:B34, Sigma cat #L4130; Ab: Acinetobacter baumannii 5075; Kp: Klebsiella pneumonia 10, Sigma cat #L4268; Ng: Neisseria gonorrhoeae 19424; Ec 026:B86, Sigma cat #L2762; Pm: Proteus mirabilis, Sigma cat #SMB00704; Sm: Serratia marcescens, Sigma cat #L6016; Pa: Pseudomonas aeruginosa 10. […] Purified LPS used for all endotoxemia studies and if not denoted by a Sigma catalog number the LPS was purified in-house using an iNtRON #17141 purification kit. *Delayed death, at the time Fc only animals reached 100% mortality all Conjugate 41 mice were still alive.

SMILES | MIC [1] [µg/mL] | MIC [2] [µg/mL] | % survival [3] [%] | % survival [4] [%] | % survival [5] [%]
C#CCOCCOCCOCCOCCC(=O)N[C@@H](CCC(C)C)C(=O)N[C@@H](CCN)C(=O)N[C@H](C(=O)NNC(=O)N[C@H]1CCNC(=O)[C@H]([C@@H](C)O)NC(=O)[C@H](CCN)NC(=O)[C@H](CCN)NC(=O)[C@H](CC(C)C)NC(=O)[C@@H](Cc2ccccc2)NC(=O)[C@H](CCN)NC1=O)[C@H](O)CCCCC [Int-116] ({Propargyl(OCH2CH2)4CO}-[hLeu][Dab][X3][azaGly][Dab][Dab][dF]L[Dab][Dab]T; lactam 5-C) | 1 (≈ 0.691 µM) | >128 | – | – | –
C#CCOCCOCCOCCOCCC(=O)N[C@@H](CCC(C)C)C(=O)N[C@@H](CCN)C(=O)N[C@H](C(=O)NN(CCN)C(=O)N[C@H]1CCNC(=O)[C@H]([C@@H](C)O)NC(=O)[C@H](CCN)NC(=O)[C@H](CCN)NC(=O)[C@H](CC(C)C)NC(=O)[C@@H](Cc2ccccc2)NC(=O)[C@H](CCN)NC1=O)[C@@H](C)O [Int-127] ({Propargyl(OCH2CH2)4CO}-[hLeu][Dab]T[azaDab][Dab][Dab][dF]L[Dab][Dab]T; lactam 5-C) | 2 (≈ 1.39 µM) | >128 | – | – | –
C#CCOCCOCCOCCOCCC(=O)N[C@@H](CCCCCC)C(=O)N[C@@H](CCN)C(=O)N[C@H](C(=O)NN(CCN)C(=O)N[C@H]1CCNC(=O)[C@H]([C@@H](C)O)NC(=O)[C@H](CCN)NC(=O)[C@H](CCN)NC(=O)[C@H](CC(C)C)NC(=O)[C@@H](Cc2ccccc2)NC(=O)[C@H](CCN)NC1=O)[C@@H](C)O [Int-129] ({Propargyl(OCH2CH2)4CO}-[Aoc(2)][Dab]T[azaDab][Dab][Dab][dF]L[Dab][Dab]T; lactam 5-C) | – | – | 100 | – | –
C#CCOCCOCCOCCOCCC(=O)N[C@@H](CCCCCC)C(=O)N[C@@H](CCN)C(=O)N[C@H](C(=O)N[C@@H](CCN)C(=O)N[C@H]1CCNC(=O)[C@H]([C@@H](C)O)NC(=O)[C@H](CCN)NC(=O)[C@H](CCN)NC(=O)[C@H](CC(C)C)NC(=O)[C@@H](Cc2ccccc2)NC(=O)[C@H](CCN)NC1=O)[C@H](O)CCC(F)(F)F [Int-118] ({Propargyl(OCH2CH2)4CO}-[Aoc(2)][Dab][X2][Dab][Dab][Dab][dF]L[Dab][Dab]T; lactam 5-C) | – | – | – | 66 | –
C#CCOCCOCCOCCOCCN1C[C@@H](C(=O)N[C@@H](CCCC)C(=O)N[C@@H](CCN)C(=O)N[C@H](C(=O)NNC(=O)N[C@H]2CCNC(=O)[C@H]([C@@H](C)O)NC(=O)[C@H](CCN)NC(=O)[C@H](CCN)NC(=O)[C@H](CC(C)C)NC(=O)[C@@H](Cc3ccccc3)NC(=O)[C@H](CCN)NC2=O)[C@@H](C)O)[C@H](C(=O)N[C@@H](CCCC)C(=O)N[C@@H](CCN)C(=O)N[C@H](C(=O)NNC(=O)N[C@H]2CCNC(=O)[C@H]([C@@H](C)O)NC(=O)[C@H](CCN)NC(=O)[C@H](CCN)NC(=O)[C@H](CC(C)C)NC(=O)[C@@H](Cc3ccccc3)NC(=O)[C@H](CCN)NC2=O)[C@@H](C)O)C1 [Int-120] (I: [Nle][Dab]T[azaGly][Dab][Dab][dF]L[Dab][Dab]T / II: [Nle][Dab]T[azaGly][Dab][Dab][dF]L[Dab][Dab]T; lactam I:5-I:C, II:5-II:C; linker I:N-II:N via X5) | 2 (≈ 0.767 µM) | 8 (≈ 3.07 µM) | – | – | 100
